# Biological target: T1, 17β-HSD10 (Homo sapiens, UniProt Q99714)
# T1 construct: Histev (histidine tag with TEV site) (N, cleaved yes); made in house; host or cells: E. coli BL21-CodonPlus
# T1 sequence (Q99714 1-261): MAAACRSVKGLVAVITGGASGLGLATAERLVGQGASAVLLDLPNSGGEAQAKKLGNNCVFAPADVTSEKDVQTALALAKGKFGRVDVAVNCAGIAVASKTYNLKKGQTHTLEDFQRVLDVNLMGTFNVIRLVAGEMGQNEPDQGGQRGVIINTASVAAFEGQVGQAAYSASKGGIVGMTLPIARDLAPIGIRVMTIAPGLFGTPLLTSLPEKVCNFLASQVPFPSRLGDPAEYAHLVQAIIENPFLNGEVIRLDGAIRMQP
# Assay: 17β-HSD10 (ABAD) enzyme inhibition assay, NADH oxidation read at 340 nm (primary screen and dose response)
# Type: biochemical
# Conditions: for EC50 / Max. Effect (%) / Hill Slope / Max. Fit / Min. Fit: recombinant 17βHSD10 enzyme assay; for Hill Slope / Max. Fit / Min. Fit: curve fit
# Procedure: Cell pellets of E. coli BL21-CodonPlus cells containing Histev-17β-HSD10 protein were re-suspended for 30 min, 4° C., in lysis buffer (20 mM NaH2PO4, 30 mM imidazole, 500 mM NaCl, 10% (v/v) glycerol, pH 7.5) with the addition of complete ethylenediaminetetraacetic acid (EDTA)-free protease inhibitor tablets (Roche), lysozyme (1 mg/mL), deoxyribonuclease (DNase) (20 μg/mL) and Triton X-100 (0.1% (v/v)). Cells were lysed by passage through a cell disruptor at 30 kPSI (Constant Systems Ltd) and the lysate was cleared by centrifugation (Sorvall Evolution RC, rotor S5-34 55-34 angle, 20500 rpm, 30 min, 4° C.). Cleared lysate was filtered (0.45 μm membrane; Whatman) then applied to a Ni-nitrilotriacetic acid (NTA) (GE Healthcare) column pre-washed with lysis buffer and protein eluted with 300 mM imidazole buffer (20 mM NaH2PO4, 300 mM imidazole, 500 mM NaCl, 10% (v/v) glycerol, pH 7.5). […] Protein digestion and dialysis was carried out at 4° C. for 16 h.
# Complete digestion was firstly checked by sodium dodecyl sulfate-polyacrylamide gel electrophoresis (SDS-PAGE), then fully digested protein was passed over a second Ni-column and the flow-through, containing 17β-HSD10 protein, was concentrated using a Vivaspin column (10 kDa MWCO, GE Healthcare) to ˜7 mL before final purification using gel filtration to remove imidazole (Hi-Load 16/60 Superdex 75 prep grade column, GE Healthcare, flow rate 1.5 mL/min). Protein was eluted in gel filtration buffer (10 mM trisaminomethane (Tris-HCl), 150 mM NaCl, 10% glycerol, pH 7.5) and concentrated (Vivaspin column (10 kDa molecular weight cut off (MWCO), GE Healthcare)) to 10 mg/mL. Aliquots (10 μL) were taken and flash frozen in liquid nitrogen before final storage at −80° C.
# The assay buffer used contains: 10 mM Tris. HCl (pH 7.4), 150 mM NaCl, 1 mM DTT, 0.005% Tween (polysorbate 20) and 0.01% bovine serum albumin (BSA). As indicated for some experiments the assay buffer was supplemented with 100 units/ml bovine liver catalase. All experiments were conducted in clear bottom 384-well or 1536-well low volume microplates (Corning) with a final assay volume of 20 μL and the reaction progress was monitored by oxidation of NADH as determined by reduction in absorbance at 340 nm read on the EnVision plate reader (PerkinElmer).
# For primary screening an endpoint assay format was adopted in which an Echo acoustic liquid dispenser (Labcyte) was used to transfer 20 nL of either reference standard, dimethylsulfoxide (DMSO) control ([…] final assay concentration (FAC)) or test compounds (10 μM FAC) to the assay plate. 10 μL of 17β-HSD10 enzyme in assay buffer (2.5 nM, FAC) was then added to the plates using the Preddator liquid handling robot (Redd and Whyte) and plates were incubated at room temperature for 15 minutes. 10 μL of substrate mixture (100 μM acetoacetyl-CoA and 100 μM NADH, FAC) was added with the Preddator. To start the reaction and the plates were left to incubate for 35 minutes at room temperature before the absorbance at 340 nm was read on the EnVision plate reader (PerkinElmer). For kinetic assay format and dose response follow up experiments the same protocol was adopted but the absorbance at 340 nm was monitored constantly for 45 minutes from immediately after the reaction was started.
SMILES,EC50,Max. Effect (%),Hill Slope,Max. Fit,Min. Fit,17β-HSD10 / ABAD activity in words (SAR discussion),"ABAD plC50 (primary screening, resynthesized HTS hit compounds)"
Cc1ccsc1C(=O)N1CCC[C@@H]1c1ccccc1-c1cnn(C2CCNCC2)c1 [ESC1002466],18.2 µM,52%,1,95,−1,–,–
COc1cccc(-c2ccccc2[C@H]2CCCN2C(=O)c2sccc2OC)c1 [ESC1002433],> 20 µM,17%,–,–,–,–,–
"O=C(c1ccon1)N1CCC[C@H]1c1ccccc1 [S1−T5, 3-{[(2S)-2-phenylpyrrolidin-1-yl]carbonyl}-1,2-oxazole]",> 20 µM,27.5%,–,–,–,–,–
"O=C(c1ccccc1F)N1CCCc2ccc(NCc3cnc[nH]3)cc21 [ESC1002081, (2-fluorophenyl)-[7-(1H-imidazol-5-ylmethylamino)-3,4-dihydro-2H-quinolin-1-yl]methanone]",> 20 µM,0%,–,–,–,potency was abolished,–
CC(C)CN(C(=O)c1ccccc1F)c1cccc(N(C)Cc2c[nH]c(C3CC3)n2)c1 [ESC1002674],8.32 µM,59%,1.2,80,−5,–,–
COc1ccc(C(=O)N(CC(C)C)c2cccc(N(C)Cc3c[nH]cn3)c2)c(F)c1 [ESC1002576],0.245 µM,98%,1.1,97,−3,–,–
"Cc1ccc(C(=O)N(CC(C)C)c2cccc(N(C)Cc3c[nH]cn3)c2)c(C)c1 [ESC1002492, N-[3-[1H-imidazol-4-ylmethyl(methyl)amino]phenyl]-N-isobutyl-2,4-dimethyl-benzamide]",0.871 µM,93%,0.73,104,−10,–,–
CC(C)CN(C(=O)c1ccccc1F)c1cccc(-n2ccnc2)c1 [ESC1002765],> 20 µM,−2%,–,–,–,–,–
CC(C)CN(C(=O)c1ccccc1F)c1cccc(N(C)CC#N)c1 [ESC1002762],> 20 µM,39%,–,–,–,–,–
"O=C(c1sccc1Cl)N1CCC[C@H]1c1ccccc1-c1cccc(O)c1F (single isomer, unassigned) [ESC1002841]",> 20 µM,27%,–,–,–,–,–
"CC(C)CN(C(=O)c1ccc(Cl)s1)c1cccc(N(C)Cc2c[nH]cn2)c1 [ESC1002460, 5-chloro-N-[3-[1H-imidazol-4-ylmethyl(methyl)amino]phenyl]-N-isobutyl-thiophene-2-carboxamide]",1.2 µM,90%,1,95,−5,–,–
"Cc1cc(CN(C(=O)c2ccccc2F)c2cccc(N(C)Cc3c[nH]cn3)c2)no1 [ESC1002516, 2-fluoro-N-[3-[1H-imidazol-4-ylmethyl(methyl)amino]phenyl]-N-[(5-methylisoxazol-3-yl)methyl]benzamide]",> 20 µM,46%,–,–,–,–,–
CNC(=O)CN(C)c1cccc(N(CC(C)C)C(=O)c2ccccc2F)c1 [ESC1002572],11.2 µM,65%,0.98,100,2,–,–
CC(C)CN(C(=O)c1ccccc1S(C)(=O)=O)c1cccc(N(C)Cc2c[nH]cn2)c1 [ESC1002622],6.92 µM,76%,0.9,108,−6,–,–
COc1cccc(-c2ccccc2[C@H]2CCCN2C(=O)C2CCN(C)CC2)c1 [ESC1002436],> 20 µM,2%,–,–,–,–,–
"Cc1ccc(C(=O)N(CC(C)C)c2cccc(N(C)Cc3cnc[nH]3)c2)cc1 [ESC1002032, N-[3-[1H-imidazol-5-ylmethyl(methyl)amino]phenyl]-N-isobutyl-4-methyl-benzamide]",0.251 µM,99%,0.9,99,0,–,6.6

SMILES,EC50,Max. Effect (%),Hill Slope,Max. Fit,Min. Fit,17β-HSD10 / ABAD activity in words (SAR discussion),"ABAD plC50 (primary screening, resynthesized HTS hit compounds)"
COc1cccc(-c2ccccc2[C@@H]2CCCN2C(=O)c2[nH]ncc2Cl)c1 (racemic) [ESC1002626],0.457 µM,95%,1.6,91,−1,–,–
Cc1ccsc1C(=O)N1CCC[C@@H]1c1ccccc1-c1ccccc1 [ESC1002462],0.234 µM,99%,1.4,98,6,–,–
"COc1cccc(-c2ccccc2[C@@H]2CCCN2C(=O)c2sccc2C)c1 (single isomer, unassigned) [ESC1002421]",0.186 µM,97%,1.6,95,11,–,–
C#CCN(C)c1cccc(N(CC(C)C)C(=O)c2ccccc2F)c1 [ESC1002636],5.5 µM,79%,0.98,101,−1,–,–
COc1ccc(-c2ccccc2[C@@H]2CCCN2C(=O)c2sccc2Cl)cc1OC (racemic) [ESC1002663],0.575 µM,93%,1.1,95,−8,–,–
Cc1ccsc1C(=O)N1CCC[C@@H]1c1ccccc1-c1ccc(C2CC2)cc1 [ESC1002422],0.562 µM,93%,1.6,90,1,–,–
COc1cccc(-c2ccccc2[C@@H]2CCCN2C(=O)c2cocn2)c1 (racemic) [ESC1002598],> 20 µM,50%,–,–,–,–,–
"O=C(c1cocn1)N1CCC[C@H]1c1ccccc1 [S1−T10, 4-{[(2S)-2-phenylpyrrolidin-1-yl]carbonyl}-1,3-oxazole]",> 20 µM,20.5%,–,–,–,–,–
"O=C(c1sccc1Cl)N1CCC[C@H]1c1ccccc1-c1cccc(O)c1 (single isomer, unassigned) [ESC1002754]",> 20 µM,20%,–,–,–,–,–
CC(C)CN(C(=O)c1ccccc1F)c1cccc(N(C)Cc2cn[nH]c2I)c1 [ESC1002687],11 µM,64%,1,100,−6,–,–
"CC(C)CN(C(=O)c1cnccn1)c1cccc(N(C)Cc2c[nH]cn2)c1 [ESC1002656, N-[3-[1H-imidazol-4-ylmethyl(methyl)amino]phenyl]-N-isobutyl-pyrazine-2-carboxamide]",> 20 µM,45%,–,–,–,–,–
COc1cccc(-c2ccccc2[C@H]2CCCN2C(=O)C2CCOCC2)c1 [ESC1002435],> 20 µM,12%,–,–,–,–,–
COc1cccc(-c2ccccc2[C@H]2CCCN2C(=O)c2ccccc2C)c1 [ESC1002434],> 20 µM,20%,–,–,–,not tolerated,–
"CCN(C(=O)c1ccccn1)c1cccc(N(C)Cc2cnc[nH]2)c1 [S2−T3, N-ethyl-N-[3-[1H-imidazol-5-ylmethyl(methyl)amino]phenyl]pyridine-2-carboxamide]",> 20 µM,20.3%,–,–,–,–,–
"COc1ccc(-c2ccc(-c3cn[nH]c3)s2)c(OC)c1OC [ESC1002024, 4-[5-(2,3,4-trimethoxyphenyl)-2-thienyl]-1H-pyrazole]",3.98 µM,89%,1.2,101,2,–,–

# Reference: patent US20260132123A1, “ABAD INHIBITOR COMPOUNDS” (UNIVERSITY COURT OF THE UNIVERSITY OF ST ANDREWS, priority 2021, published 2026)
